The results in this text go back to patent EP0527720B1, “THERAPEUTIC AGENTS” (The Boots Company PLC, priority 1989, dated 1990).

SMILES strings stand for the structures.

The series deals with heart failure patients. In words: Earlier clinical studies of flosequinan 150 mg alone in heart failure patients. The format is in vivo, human. Particulars: heart failure patients receiving 150 mg doses of flosequinan. An excerpt:
An increase of heart rate is generally an undesirable effect in the treatment of heart failure since additional stress is placed on the failing heart. Furthermore, patients receiving such therapy may report adverse drug events associated with the increase in heart rate such as tachycardia and palpitations. These undesirable side effects of vasodilatory drug therapy effectively limit the maximum dose of the drug which can be safely administered.
This was particularly remarkable since no increase in heart rate (HR) was apparent. This implies that the increase in cardiac output (CO) evident after coadministration of captopril and flosequinan is due to an increase in stroke volume and not due, at least in part, to an increase in heart rate (HR) as expected.

On to `Cn1cc([S+](C)[O-])c(=O)c2ccc(F)cc21` (stereo not shown) [flosequinan, 7-fluoro-1-methyl-3-methylsulphinyl-4-quinolone], for which the heart rate result is “an increase of heart rate occurs”.
